US8901118B2, “Compounds and methods for kinase modulation, and indications therefor” (Plexxikon Inc., priority 2010, dated 2014)

Legend:
[1] = target: T1, BCR-KIT BaF3 cells (Homo sapiens, UniProt P10721); experiment: BaF3 BCR-KIT cell proliferation assay (ATPlite); assay type: cell-based; settings: read-out: Inhibition of Cell Proliferation IC50, BCR/BaF3 Kit
T1 construct: fused on or other part: P11274 (Breakpoint cluster region protein)
Outline: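 Cells are plated overnight: BaF3 at 10,000/well in G418 medium without WEHI/IL-3, MV-4-11 at 25,000/well in IMDM with 10% FBS. An 8-point 1:3 compound titration (10 μM top) is then added, and plates are incubated 3 days at 37 °C before ATPlite readout and IC50 determination.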

[2] = Relative solubility by turbidity in aqueous buffers (pH 1.5, 4.5, 6.8, 7.4); assay type: physicochemical; settings: for turbidity threshold (L, M, H) 1.4: pH 1.5 (SGF); for turbidity threshold (L, M, H) 4.5: pH 4.5 (SIF); for turbidity threshold (L, M, H) 6.8: pH 6.8 (SIF); for turbidity threshold (L, M, H) 7.4: pH 7.4 (HEPES)
Outline: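 Reported value: concentration at which optical density at 490, 535 and 650 nm passes 0.01, taken as the mean of the three wavelengths. Buffers were 0.5M NaCl pH 1.5, 0.05M NaH2PO4 pH 4.5 or 6.8, and 10 mM HEPES/150 mM NaCl pH 7.4, each receiving serial 1:1 DMSO dilutions of a 25 mM stock.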

T1 sequence (P10721 589-937): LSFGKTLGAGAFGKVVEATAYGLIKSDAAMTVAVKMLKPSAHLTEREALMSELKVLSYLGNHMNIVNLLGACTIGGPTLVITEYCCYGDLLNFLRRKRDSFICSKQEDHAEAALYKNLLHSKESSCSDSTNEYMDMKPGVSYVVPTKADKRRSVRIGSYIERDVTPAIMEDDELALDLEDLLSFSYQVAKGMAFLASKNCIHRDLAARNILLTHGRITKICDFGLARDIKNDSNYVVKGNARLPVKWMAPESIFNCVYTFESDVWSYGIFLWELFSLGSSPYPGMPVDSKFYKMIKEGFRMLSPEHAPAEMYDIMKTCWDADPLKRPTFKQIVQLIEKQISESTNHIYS

Row | SMILES | IC50 [1] [nM] | turbidity threshold (L, M, H) 1.4 [2] | turbidity threshold (L, M, H) 4.5 [2] | turbidity threshold (L, M, H) 6.8 [2] | turbidity threshold (L, M, H) 7.4 [2]
1 | CCCNc1ncnc2[nH]cc(C(=O)c3ccc(Nc4ccc(C)nc4)nc3F)c12 [Compound P-4114, [2-fluoro-6-[(6-methyl-3-pyridyl)amino]-3-pyridyl]-[4-(propylamino)-7H-pyrrolo[2,3-d]pyrimidin-5-yl]methanone] | < 1000 | H (high solubility if the threshold concentration is >250 μm) | L (low solubility if the threshold concentration is <31.3 μM) | L (low solubility if the threshold concentration is <31.3 μM) | L (low solubility if the threshold concentration is <31.3 μM)
2 | CNc1ncnc2[nH]cc(C(=O)c3ccc(Nc4ccc(C)nc4)nc3F)c12 [Compound P-4115, [2-fluoro-6-[(6-methyl-3-pyridyl)amino]-3-pyridyl]-[4-(methylamino)-7H-pyrrolo[2,3-d]pyrimidin-5-yl]methanone] | < 1000 | H (high solubility if the threshold concentration is >250 μm) | M (moderate solubility if the threshold concentration is 31.3 μM to 250 μM) | M (moderate solubility if the threshold concentration is 31.3 μM to 250 μM) | M (moderate solubility if the threshold concentration is 31.3 μM to 250 μM)
3 | CCc1ccc(Nc2ccc(C(=O)c3c[nH]c4ncnc(NC5CCOCC5)c34)c(F)n2)cn1 [Compound P-4116, [6-[(6-ethyl-3-pyridyl)amino]-2-fluoro-3-pyridyl]-[4-(tetrahydropyran-4-ylamino)-7H-pyrrolo[2,3-d]pyrimidin-5-yl]methanone] | < 100 | H (high solubility if the threshold concentration is >250 μm) | M (moderate solubility if the threshold concentration is 31.3 μM to 250 μM) | M (moderate solubility if the threshold concentration is 31.3 μM to 250 μM) | M (moderate solubility if the threshold concentration is 31.3 μM to 250 μM)
4 | CCc1ccc(Nc2ccc(C(=O)c3c[nH]c4ncnc(NC(C)C)c34)c(F)n2)cn1 [Compound P-4117, [6-[(6-ethyl-3-pyridyl)amino]-2-fluoro-3-pyridyl]-[4-(isopropylamino)-7H-pyrrolo[2,3-d]pyrimidin-5-yl]methanone] | < 100 | H (high solubility if the threshold concentration is >250 μm) | L (low solubility if the threshold concentration is <31.3 μM) | L (low solubility if the threshold concentration is <31.3 μM) | L (low solubility if the threshold concentration is <31.3 μM)
5 | CCc1ccc(Nc2ccc(C(=O)c3c[nH]c4ncnc(NCC5CC5)c34)c(F)n2)cn1 [Compound P-4118, [4-(cyclopropylmethylamino)-7H-pyrrolo[2,3-d]pyrimidin-5-yl]-[6-[(6-ethyl-3-pyridyl)amino]-2-fluoro-3-pyridyl]methanone] | < 100 | H (high solubility if the threshold concentration is >250 μm) | M (moderate solubility if the threshold concentration is 31.3 μM to 250 μM) | M (moderate solubility if the threshold concentration is 31.3 μM to 250 μM) | L (low solubility if the threshold concentration is <31.3 μM)
6 | CCc1ccc(Nc2ccc(C(=O)c3c[nH]c4ncnc(NC5CC5)c34)c(F)n2)cn1 [Compound P-4125, [4-(cyclopropylamino)-7H-pyrrolo[2,3-d]pyrimidin-5-yl]-[6-[(6-ethyl-3-pyridyl)amino]-2-fluoro-3-pyridyl]methanone] | < 100 | H (high solubility if the threshold concentration is >250 μm) | L (low solubility if the threshold concentration is <31.3 μM) | L (low solubility if the threshold concentration is <31.3 μM) | L (low solubility if the threshold concentration is <31.3 μM)
7 | Fc1cc(Cc2c[nH]c3ncnc(NC4CC4)c23)cnc1NC1CCC(F)(F)CC1 [Compound P-4127, N-cyclopropyl-5-[[6-[(4,4-difluorocyclohexyl)amino]-5-fluoro-3-pyridyl]methyl]-7H-pyrrolo[2,3-d]pyrimidin-4-amine] | < 100 | H (high solubility if the threshold concentration is >250 μm) | M (moderate solubility if the threshold concentration is 31.3 μM to 250 μM) | M (moderate solubility if the threshold concentration is 31.3 μM to 250 μM) | M (moderate solubility if the threshold concentration is 31.3 μM to 250 μM)

Second part, led by results:

Row | IC50 [1] [nM] | SMILES | turbidity threshold (L, M, H) 1.4 [2] | turbidity threshold (L, M, H) 4.5 [2] | turbidity threshold (L, M, H) 6.8 [2] | turbidity threshold (L, M, H) 7.4 [2]
8 | > 1000 | Cc1ccc(Nc2ccc(C(=O)c3c[nH]c4ncnc(NCC(F)(F)F)c34)c(F)n2)cn1 [Compound P-4112, [2-fluoro-6-[(6-methyl-3-pyridyl)amino]-3-pyridyl]-[4-(2,2,2-trifluoroethylamino)-7H-pyrrolo[2,3-d]pyrimidin-5-yl]methanone] | M (moderate solubility if the threshold concentration is 31.3 μM to 250 μM) | M (moderate solubility if the threshold concentration is 31.3 μM to 250 μM) | M (moderate solubility if the threshold concentration is 31.3 μM to 250 μM) | H (high solubility if the threshold concentration is >250 μm)
9 | < 100 | CCc1ccc(Nc2ccc(C(=O)c3c[nH]c4ncnc(NCCOC)c34)c(F)n2)cn1 [Compound P-4119, [6-[(6-ethyl-3-pyridyl)amino]-2-fluoro-3-pyridyl]-[4-(2-methoxyethylamino)-7H-pyrrolo[2,3-d]pyrimidin-5-yl]methanone] | H (high solubility if the threshold concentration is >250 μm) | M (moderate solubility if the threshold concentration is 31.3 μM to 250 μM) | M (moderate solubility if the threshold concentration is 31.3 μM to 250 μM) | L (low solubility if the threshold concentration is <31.3 μM)
10 | < 1000 | CCc1ccc(Nc2ccc(C(=O)c3c[nH]c4ncnc(NCC(F)(F)F)c34)c(F)n2)cn1 [Compound P-4120, [6-[(6-ethyl-3-pyridyl)amino]-2-fluoro-3-pyridyl]-[4-(2,2,2-trifluoroethylamino)-7H-pyrrolo[2,3-d]pyrimidin-5-yl]methanone] | L (low solubility if the threshold concentration is <31.3 μM) | M (moderate solubility if the threshold concentration is 31.3 μM to 250 μM) | M (moderate solubility if the threshold concentration is 31.3 μM to 250 μM) | M (moderate solubility if the threshold concentration is 31.3 μM to 250 μM)
11 | < 100 | CCc1ccc(Nc2ccc(C(=O)c3c[nH]c4ncnc(NCC(C)C)c34)c(F)n2)cn1 [Compound P-4121, [6-[(6-ethyl-3-pyridyl)amino]-2-fluoro-3-pyridyl]-[4-(isobutylamino)-7H-pyrrolo[2,3-d]pyrimidin-5-yl]methanone] | H (high solubility if the threshold concentration is >250 μm) | H (high solubility if the threshold concentration is >250 μm) | H (high solubility if the threshold concentration is >250 μm) | H (high solubility if the threshold concentration is >250 μm)
12 | < 100 | CCCNc1ncnc2[nH]cc(C(=O)c3ccc(Nc4ccc(CC)nc4)nc3F)c12 [Compound P-4122, [6-[(6-ethyl-3-pyridyl)amino]-2-fluoro-3-pyridyl]-[4-(propylamino)-7H-pyrrolo[2,3-d]pyrimidin-5-yl]methanone] | H (high solubility if the threshold concentration is >250 μm) | L (low solubility if the threshold concentration is <31.3 μM) | M (moderate solubility if the threshold concentration is 31.3 μM to 250 μM) | L (low solubility if the threshold concentration is <31.3 μM)
13 | < 100 | CCNc1ncnc2[nH]cc(C(=O)c3ccc(Nc4ccc(CC)nc4)nc3F)c12 [Compound P-4123, [4-(ethylamino)-7H-pyrrolo[2,3-d]pyrimidin-5-yl]-[6-[(6-ethyl-3-pyridyl)amino]-2-fluoro-3-pyridyl]methanone] | H (high solubility if the threshold concentration is >250 μm) | L (low solubility if the threshold concentration is <31.3 μM) | L (low solubility if the threshold concentration is <31.3 μM) | L (low solubility if the threshold concentration is <31.3 μM)
14 | < 100 | CCc1ccc(Nc2ccc(C(=O)c3c[nH]c4ncnc(NC)c34)c(F)n2)cn1 [Compound P-4124, [6-[(6-ethyl-3-pyridyl)amino]-2-fluoro-3-pyridyl]-[4-(methylamino)-7H-pyrrolo[2,3-d]pyrimidin-5-yl]methanone] | M (moderate solubility if the threshold concentration is 31.3 μM to 250 μM) | L (low solubility if the threshold concentration is <31.3 μM) | L (low solubility if the threshold concentration is <31.3 μM) | M (moderate solubility if the threshold concentration is 31.3 μM to 250 μM)
